Assay results as given in patent publication US11591341B2 (ALIGOS THERAPEUTICS, INC., priority 2019, dated 2023).

Test system: HBV
Assay: HBV-DNA Antiviral Assay Using HepG2.117 Cells (intracellular HBV DNA by qPCR)
Format: cell-based, hepatitis B virus (genotype D)
Conditions: Hepatitis B virus, HepG2.117
Procedure, shortened: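 Endpoint: qPCR copy number of intracellular HBV DNA after 3-day compound exposure, with inhibition set relative to the 2% DMSO control. The cells were doxycycline-free HepG2.117 carrying a Tet-off genotype D genome, dosed at nine 4-fold dilutions. A duplicate plate gave ATP-based viability (CC50).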

COc1ccc(-n2c(C(=O)NCc3ccc4[nH]c(=O)[nH]c4c3)c3n(c2=O)CCN(C(=O)c2ccc(Cl)c(Cl)c2)C3)cc1 [Example 93, 7-(3,4-dichlorobenzoyl)-2-(4-methoxyphenyl)-3-oxo-N-[(2-oxo-1,3-dihydrobenzimidazol-5-yl)methyl]-6,8-dihydro-5H-imidazo[1,5-a]pyrazine-1-carboxamide]
EC50: > 5000 nM

COc1cc(Cl)c(-n2c(C(=O)NCc3ccccc3)c3n(c2=O)CCN(C(=O)c2ccc(Cl)c(Cl)c2)C3)c(Cl)c1 [Example 96, N-benzyl-7-(3,4-dichlorobenzoyl)-2-(2,6-dichloro-4-methoxy-phenyl)-3-oxo-6,8-dihydro-5H-imidazo[1,5-a]pyrazine-1-carboxamide]
EC50: > 5000 nM

COc1ccc(-n2c(C(=O)NCc3ccc(Cl)c(OC)c3)c3n(c2=O)CCN(C(=O)c2ccc(Br)c(Cl)c2)C3)cc1 [Example 101, 7-(4-bromo-3-chloro-benzoyl)-N-[(4-chloro-3-methoxy-phenyl)methyl]-2-(4-methoxyphenyl)-3-oxo-6,8-dihydro-5H-imidazo[1,5-a]pyrazine-1-carboxamide]
EC50: 500 to 5000 nM

COc1ccc(-n2c(C(=O)NCc3ccc(Cl)c(OC)c3)c3n(c2=O)CCN(C(=O)c2ccc(Cl)c(Cl)c2)C3)cc1 [Example 102, N-[(4-chloro-3-methoxy-phenyl)methyl]-7-(3,4-dichlorobenzoyl)-2-(4-methoxyphenyl)-3-oxo-6,8-dihydro-5H-imidazo[1,5-a]pyrazine-1-carboxamide]
EC50: 500 to 5000 nM

COc1ccc(-n2c(C(=O)NCc3ccc(F)c(OC)c3)c3n(c2=O)CCN(C(=O)c2ccc(Cl)c(Cl)c2)C3)cc1 [Example 103, 7-(3,4-dichlorobenzoyl)-N-[(4-fluoro-3-methoxy-phenyl)methyl]-2-(4-methoxyphenyl)-3-oxo-6,8-dihydro-5H-imidazo[1,5-a]pyrazine-1-carboxamide]
EC50: 500 to 5000 nM

COc1ccc(-n2c(C(=O)NCc3ccc(C(N)=O)cc3)c3n(c2=O)CCN(C(=O)c2ccc(Cl)c(Cl)c2)C3)cc1 [Example 104, N-[(4-carbamoylphenyl)methyl]-7-(3,4-dichlorobenzoyl)-2-(4-methoxyphenyl)-3-oxo-6,8-dihydro-5H-imidazo[1,5-a]pyrazine-1-carboxamide]
EC50: > 5000 nM

COc1ccc(-n2c(C(=O)NCC3CC3)c3n(c2=O)CCN(C(=O)c2ccc(Cl)c(Cl)c2)C3)cc1 [Example 105, N-(cyclopropylmethyl)-7-(3,4-dichlorobenzoyl)-2-(4-methoxyphenyl)-3-oxo-6,8-dihydro-5H-imidazo[1,5-a]pyrazine-1-carboxamide]
EC50: > 5000 nM

COc1ccc(-n2c(C(=O)NC3(CO)CC3)c3n(c2=O)CCN(C(=O)c2ccc(Cl)c(Cl)c2)C3)cc1 [Example 106, 7-(3,4-dichlorobenzoyl)-N-[1-(hydroxymethyl)cyclopropyl]-2-(4-methoxyphenyl)-3-oxo-6,8-dihydro-5H-imidazo[1,5-a]pyrazine-1-carboxamide]
EC50: > 5000 nM

COc1ccc(-n2c(C(=O)NCc3ccc4[nH]ncc4c3)c3n(c2=O)CCN(C(=O)c2ccc(Cl)c(Cl)c2)C3)cc1 [Example 107, 7-(3,4-dichlorobenzoyl)-N-(1H-indazol-5-ylmethyl)-2-(4-methoxyphenyl)-3-oxo-6,8-dihydro-5H-imidazo[1,5-a]pyrazine-1-carboxamide]
EC50: 500 to 5000 nM

COc1ccc(-n2c(C(=O)NCc3ccccc3)c3n(c2=O)CCN(C(=O)c2ccc(Br)c(Cl)c2)C3)nc1 [Example 110, N-benzyl-7-(4-bromo-3-chloro-benzoyl)-2-(5-methoxy-2-pyridyl)-3-oxo-6,8-dihydro-5H-imidazo[1,5-a]pyrazine-1-carboxamide]
EC50: 500 to 5000 nM

COCC1(N(C)C(=O)c2c3n(c(=O)n2-c2ccc(OC)cc2)CCN(C(=O)c2ccc(Cl)c(Cl)c2)C3)CC1 [Example 111, 7-(3,4-dichlorobenzoyl)-N-[1-(methoxymethyl)cyclopropyl]-2-(4-methoxyphenyl)-N-methyl-3-oxo-6,8-dihydro-5H-imidazo[1,5-a]pyrazine-1-carboxamide]
EC50: > 5000 nM

COc1ccc(-n2c(C(=O)NCc3ccccc3OC)c3n(c2=O)CCN(C(=O)c2ccc(Br)c(Cl)c2)C3)cc1 [Example 114, 7-(4-bromo-3-chloro-benzoyl)-2-(4-methoxyphenyl)-N-[(2-methoxyphenyl)methyl]-3-oxo-6,8-dihydro-5H-imidazo[1,5-a]pyrazine-1-carboxamide]
EC50: 100 to 500 nM

COc1ccc(-n2c(C(=O)NCc3ccccc3OC)c3n(c2=O)CCN(C(=O)c2ccc(Cl)c(Cl)c2)C3)cc1 [Example 115, 7-(3,4-dichlorobenzoyl)-2-(4-methoxyphenyl)-N-[(2-methoxyphenyl)methyl]-3-oxo-6,8-dihydro-5H-imidazo[1,5-a]pyrazine-1-carboxamide]
EC50: 100 to 500 nM

COc1ccc(-n2c(C(=O)NCc3ccc(F)cc3C)c3n(c2=O)CCN(C(=O)c2ccc(Br)c(Cl)c2)C3)cc1 [Example 116, 7-(4-bromo-3-chloro-benzoyl)-N-[(4-fluoro-2-methyl-phenyl)methyl]-2-(4-methoxyphenyl)-3-oxo-6,8-dihydro-5H-imidazo[1,5-a]pyrazine-1-carboxamide]
EC50: 100 to 500 nM

COc1ccc(-n2c(C(=O)NCc3ccccc3)c3n(c2=O)CCN(c2ncnc4cc(Cl)ccc24)C3)cc1 [Example 117, N-benzyl-7-(7-chloroquinazolin-4-yl)-2-(4-methoxyphenyl)-3-oxo-6,8-dihydro-5H-imidazo[1,5-a]pyrazine-1-carboxamide]
EC50: > 5000 nM

O=C(NCc1ccccc1)c1c2n(c(=O)n1-c1ccc3occc3c1)CCN(C(=O)c1ccc(Cl)c(Cl)c1)C2 [Example 120, 2-(benzofuran-5-yl)-N-benzyl-7-(3,4-dichlorobenzoyl)-3-oxo-6,8-dihydro-5H-imidazo[1,5-a]pyrazine-1-carboxamide]
EC50: 500 to 5000 nM

O=C(NCc1ccccc1)c1c2n(c(=O)n1-c1ccc(OC(F)F)cc1)CCN(C(=O)c1ccc(Cl)c(Cl)c1)C2 [Example 121, N-benzyl-7-(3,4-dichlorobenzoyl)-2-[4-(difluoromethoxy)phenyl]-3-oxo-6,8-dihydro-5H-imidazo[1,5-a]pyrazine-1-carboxamide]
EC50: 500 to 5000 nM

Cc1ccc(-n2c(C(=O)NCc3ccccc3)c3n(c2=O)CCN(C(=O)c2ccc(Cl)c(Cl)c2)C3)cc1 [Example 122, N-benzyl-7-(3,4-dichlorobenzoyl)-3-oxo-2-(p-tolyl)-6,8-dihydro-5H-imidazo[1,5-a]pyrazine-1-carboxamide]
EC50: 500 to 5000 nM

Cc1ccc(-n2c(C(=O)NCc3ccccc3)c3n(c2=O)CCN(C(=O)c2ccc(Br)c(Cl)c2)C3)cc1 [Example 123, N-benzyl-7-(4-bromo-3-chloro-benzoyl)-3-oxo-2-(p-tolyl)-6,8-dihydro-5H-imidazo[1,5-a]pyrazine-1-carboxamide]
EC50: 100 to 500 nM

COc1ccc(-n2c(C(=O)NCc3ccccc3)c3n(c2=O)CCN(C(=O)c2ccc(Cl)c(Cl)c2)C3)cc1C [Example 124, N-benzyl-7-(3,4-dichlorobenzoyl)-2-(4-methoxy-3-methyl-phenyl)-3-oxo-6,8-dihydro-5H-imidazo[1,5-a]pyrazine-1-carboxamide]
EC50: 500 to 5000 nM

COc1ccc(-n2c(C(=O)NCc3cccc(F)c3)c3n(c2=O)CCN(C(=O)c2ccc(Br)c(Cl)c2)C3)cc1 [Example 125, 7-(4-bromo-3-chloro-benzoyl)-N-[(3-fluorophenyl)methyl]-2-(4-methoxyphenyl)-3-oxo-6,8-dihydro-5H-imidazo[1,5-a]pyrazine-1-carboxamide]
EC50: 100 to 500 nM

COc1ccc(-n2c(C(=O)NCc3cccc(C(N)=O)c3)c3n(c2=O)CCN(C(=O)c2ccc(Cl)c(Cl)c2)C3)cc1 [Example 126, N-[(3-carbamoylphenyl)methyl]-7-(3,4-dichlorobenzoyl)-2-(4-methoxyphenyl)-3-oxo-6,8-dihydro-5H-imidazo[1,5-a]pyrazine-1-carboxamide]
EC50: > 5000 nM

O=C(NCc1ccccc1)c1c2n(c(=O)n1-c1ccc(OC(F)(F)F)cc1)CCN(C(=O)c1ccc(Cl)c(Cl)c1)C2 [Example 131, N-benzyl-7-(3,4-dichlorobenzoyl)-3-oxo-2-[4-(trifluoromethoxy)phenyl]-6,8-dihydro-5H-imidazo[1,5-a]pyrazine-1-carboxamide]
EC50: > 5000 nM

COc1ccc(CN2C/C=C\Cn3c(c4n(c3=O)CCN(C(=O)c3ccc(Br)c(Cl)c3)C4)C2=O)cc1 [Example 132, (11Z)-4-(4-bromo-3-chloro-benzoyl)-14-[(4-methoxyphenyl)methyl]-4,7,9,14-tetrazatricyclo[7.6.0.0^2,7]pentadeca-1,11-diene-8.15-dione]
EC50: 100 to 500 nM

O=C(c1ccc(Br)c(Cl)c1)N1CCn2c(c3n(c2=O)CCCN(CC2CC2)C3=O)C1 [Example 133, 4-(4-bromo-3-chloro-benzoyl)-13-(cyclopropylmethyl)-4,7,9,13-tetrazatricyclo[7.5.0.0^2,7]tetradec-1-ene-8.14-dione]
EC50: > 5000 nM

CC(C)CN1CCCn2c(c3n(c2=O)CCN(C(=O)c2ccc(Br)c(Cl)c2)C3)C1=O [Example 134, 4-(4-bromo-3-chloro-benzoyl)-13-isobutyl-4,7,9,13-tetrazatricyclo[7.5.0.0^2,7]tetradec-1-ene-8.14-dione]
EC50: > 5000 nM

COc1ccc(CN2CCCCn3c(c4n(c3=O)CCN(C(=O)c3ccc(Br)c(Cl)c3)C4)C2=O)cc1 [Example 135, 4-(4-bromo-3-chloro-benzoyl)-14-[(4-methoxyphenyl)methyl]-4,7,9,14-tetrazatricyclo[7.6.0.0^2,7]pentadec-1-ene-8.15-dione]
EC50: 500 to 5000 nM

O=C(NCc1ccccc1)c1c2n(c(=O)n1-c1ncccn1)CCN(C(=O)c1ccc(Cl)c(Cl)c1)C2 [Example 138, N-benzyl-7-(3,4-dichlorobenzoyl)-3-oxo-2-pyrimidin-2-yl-6,8-dihydro-5H-imidazo[1,5-a]pyrazine-1-carboxamide]
EC50: > 5000 nM

COc1ccc(-n2c(C(=O)NCc3ccc(Cl)cc3)c3n(c2=O)CCN(C(=O)c2ccc(Br)c(Cl)c2)C3)cc1 [Example 139, 7-(4-bromo-3-chloro-benozyl)-N-[(4-chlorophenyl)methyl]-2-(4-methoxyphenyl)-3-oxo-6,8-dihydro-5H-imidazo[1,5-a]pyrazine-1-carboxamide]
EC50: 100 to 500 nM
